From patent publication US6924298B2, “2-(3,5-Disubstituted-4-pyridyl)-4-(thienyl, thiazolyl or arylphenyl)-1,3-oxazoline compounds” (Dow AgroSciences LLC, priority 2000, dated 2005)
Where two headings read alike, the source gives them in different places.

Columns and labels:
Format in all cases: in vivo
[1] = test system: sweetpotato whitefly (Bemisia tabacia); test: Insecticidal test for sweetpotato whitefly, spray on cotton plants; settings: 312 h, 200 ppm spray, large nymphs counted after 13 days, read-out: WF: activity at 200 ppm against whitefly (% Control rating)
Method: Insecticidal Test for Sweetpotato Whitefly (Bemisia tabacia)
Four mg of each test compound was dissolved by adding 4 mL of a 90:10 acetone:ethanol solvent mixture to the vial containing the sample compound. This solution was added to 16 mL of water containing 0.05% Tween 20 surfactant to produce 20 mL of a 200 ppm spray solution.
Five-week-old cotton plants reared in a greenhouse were stripped of all foliage except for the two uppermost true leaves that were greater than 5 cm in diameter.
These plants were then placed into a laboratory colony of whiteflies for two days for oviposition by the colony females. All whiteflies were then removed from the test plants with pressurized air. The spray solution was then applied to the test plants with a hand-held syringe fitted with hollow cone nozzle. One mL of spray solution was applied to each leaf top and bottom for a total of 4 mL per plant. Four replications of each test compound utilized a total of 16 mL spray solution. Plants were air dried and then placed in a holding chamber (28° C. and 60% RH) for 13 days. Compound efficacy was evaluated by counting, under an illuminated magnifying glass, the number of large nymphs (3rd-4th instar) per leaf.
Percent control based on reduction of large nymphs of a test compound compared to solution-only (no test compound) sprayed plants is reported in Tables 1-4.

[2] = test system: cotton aphid (Aphis gossypii); test: Insecticidal test for cotton aphid, spray on infested squash cotyledons; settings: Aphis gossypii, 72 h, read-out: CA: activity at 50 ppm against cotton aphid (% Control rating)
Method: Insecticidal Test for Cotton Aphid (Aphis gossypii)
To prepare spray solutions, 1 mg of each test compound was dissolved into 1 mL of a 90:10 acetone:ethanol solvent. This 1 mL of chemical solution was added to 19 mL of water containing 0.05% Tween 20 surfactant to produce a 50 ppm spray solution.
Squash cotyledons were infested with cotton aphid (all life stages)16-20 hours prior to application of spray solution. The solution was sprayed on both sides of each infested squash cotyledon (0.5 mL×2 each side) with a sweeping action until runoff. The plants were allowed to air dry and held for 3 days in a controlled room at 26° C. and 40% RH after which time the test was graded. Grading was by actual count using a dissecting microscope and comparison of test counts to the untreated check. Results are given in Tables 1-4 as percent control based on population reduction versus the untreated.

[3] = test system: two-spotted spider mite (Tetranychus urticae); test: Insecticidal test for two-spotted spider mite, ovicide method on cotton leaf discs; settings: Tetranychus urticae, foliar, 144 h, hatched larvae after 6 days, read-out: SM: activity against two-spotted spider mite (% Control rating)
Method: Insecticidal Test for Two-Spotted Spider Mite (Tetranychus urticae) Ovicide Method: Ten adult female two-spotted spider mites were placed on eight 2.2 cm leaf discs of cotton leaf, allowed to oviposit over 24 hours, and thereafter removed. […] Discs were placed on an agar substrate and held at 24° C. and 90% RH for 6 days.

[4] = test system: beet armyworm (Spodoptera exigua); test: Insecticidal test for beet armyworm, treated lepidopteran diet; settings: Spodoptera exigua, 120 h, read-out: BAW: activity at 400 ppm against beet armyworm (% Control rating)
Method: (§1) Insecticidal Test for Tobacco Budworm (Heliothis virescens), Beet Armyworm (Spodoptera exigua), and Cabbage Looper (Trichoplusia ni).
(§2) To prepare the test solution, the test compound was formulated at 400 ppm in 7.5 mL of 2 acetone:1 tap water. 250 μL of the test solution was pipetted upon the surface of 8 mL of lepidopteran diet (modified Shorey) contained in each of five one-ounce plastic cups (one cup=1 replication). A second-instar beet armyworm was placed upon the treated diet in each cup once the solvent had air-dried. The solutions remaining after completing applications to the one-ounce cups were then used as leaf-dip solutions for 3.5 cm leaf discs cut from cabbage leaves and cotton cotyledons. Five discs of each type of plant were dipped until thoroughly coated into each rate of each compound (=5 replications of each treatment). After air-drying, the treated leaf discs were placed individually into one-ounce plastic cups. Each dried, treated cotton cotyledon disc was infested with a 2nd instar tobacco budworm larva, and each cabbage leaf disc was infested with a 2nd instar cabbage looper larva. Cups containing the treated substrates and larvae were capped and then held in a growth chamber at 25° C., 50-55% RH, and 14 hr light: 10 hr dark for 5 days.

[5] = test system: cabbage looper (Trichoplusia ni); test: Insecticidal test for cabbage looper, treated cabbage leaf disc; settings: Trichoplusia ni, foliar, 120 h, read-out: CL: activity at 400 ppm against cabbage looper (% Control rating)
Method: as §1, §2

[6] = 50 ppm spray, squash cotyledons, all life stages, 3 days
[7] = 400 ppm, treated diet surface, second-instar larvae, 5 days
[8] = 400 ppm, leaf-dip cabbage leaf disc, 2nd instar larvae, 5 days

SMILES | pest or weed control at 50 ppm [2, 6] | pest or weed control [3] | pest or weed control at 400 ppm [4, 7] | pest or weed control at 400 ppm [5, 8] | further results
Clc1cncc(Cl)c1C1=NC(c2ccccc2)CO1 (stereo not drawn) [Compound 1] | < 50% | – | – | – | pest or weed control at 200 ppm [1]: < 50%
Clc1ccc(C2COC(c3c(Cl)cncc3Cl)=N2)cc1 (stereo not drawn) [Compound 2] | 90 to 100% | < 50% | – | – | pest or weed control at 200 ppm [1]: < 50%
Fc1ccc(C2COC(c3c(Cl)cncc3Cl)=N2)cc1 (stereo not drawn) [Compound 3] | 80 to 89% | – | – | – | pest or weed control at 200 ppm [1]: 80 to 89%
Clc1cncc(Cl)c1C1=NC(c2ccc(Br)cc2)CO1 (stereo not drawn) [Compound 4, 2-(3,5-dichloro-4-pyridinyl)-4-(4-bromophenyl)oxazoline] | 90 to 100% | 90 to 100% | – | – | –
COc1ccc(-c2ccc(C3COC(c4c(Cl)cncc4Cl)=N3)cc2)cn1 (stereo not drawn) [Compound 7] | – | 90 to 100% | 60 to 69% | 80 to 89% | –
Cc1ccc(-c2ccc(C3COC(c4c(Cl)cncc4Cl)=N3)cc2)cc1C (stereo not drawn) [Compound 8] | – | – | – | – | pest or weed control at 400 ppm [4]: 90 to 100%; pest or weed control at 50 ppm [2]: 80 to 89%; pest or weed control at 400 ppm [5]: 80 to 89%
Cc1ccc(-c2ccc(C3COC(c4c(Cl)cncc4Cl)=N3)cc2)cc1 (stereo not drawn) [Compound 9] | – | – | – | – | pest or weed control at 400 ppm [4]: 90 to 100%; pest or weed control at 50 ppm [2]: 90 to 100%
Cc1ccc(-c2ccc(C3COC(c4c(Cl)cncc4Cl)=N3)cc2)s1 (stereo not drawn) [Compound 10] | – | – | – | – | pest or weed control at 400 ppm [4]: 80 to 89%; pest or weed control at 50 ppm [2]: 60 to 69%; pest or weed control at 400 ppm [5]: 90 to 100%
Clc1cncc(Cl)c1C1=NC(c2ccc(I)cc2)CO1 (stereo not drawn) [Compound 11, 2-(3,5-dichloro-4-pyridinyl)-4-(4-iodophenyl)oxazoline] | 90 to 100% | 90 to 100% | – | – | pest or weed control at 200 ppm [1]: 90 to 100%
Clc1cncc(Cl)c1C1=NC(c2ccc(-c3ccc4c(c3)OCO4)cc2)CO1 (stereo not drawn) [Compound 13] | 80 to 89% | < 50% | 60 to 69% | 90 to 100% | –
Fc1ccc(-c2ccc(C3COC(c4c(Cl)cncc4Cl)=N3)cc2)cc1F (stereo not drawn) [Compound 14] | 60 to 69% | 90 to 100% | 80 to 89% | – | –
FC(F)(F)c1cccc(-c2ccc(C3COC(c4c(Cl)cncc4Cl)=N3)cc2)c1 (stereo not drawn) [Compound 15] | < 50% | < 50% | 90 to 100% | 90 to 100% | –
Clc1ccccc1-c1ccc(C2COC(c3c(Cl)cncc3Cl)=N2)cc1 (stereo not drawn) [Compound 18] | 50 to 59% | < 50% | – | 80 to 89% | –
Clc1cccc(-c2ccc(C3COC(c4c(Cl)cncc4Cl)=N3)cc2)c1 (stereo not drawn) [Compound 20] | – | – | – | – | pest or weed control at 50 ppm [2]: < 50%; pest or weed control at 400 ppm [5]: 90 to 100%
FC(F)(F)c1ccccc1-c1ccc(C2COC(c3c(Cl)cncc3Cl)=N2)cc1 (stereo not drawn) [Compound 22] | 70 to 79% | – | – | – | –
Fc1ccccc1-c1ccc(C2COC(c3c(Cl)cncc3Cl)=N2)cc1 (stereo not drawn) [Compound 23] | 90 to 100% | 90 to 100% | 60 to 69% | 90 to 100% | –
FC(F)(F)c1cc(-c2ccc(C3COC(c4c(Cl)cncc4Cl)=N3)cc2)cc(C(F)(F)F)c1 (stereo not drawn) [Compound 24] | < 50% | – | 90 to 100% | – | pest or weed control at 200 ppm [1]: < 50%
Cc1ccccc1-c1ccc(C2COC(c3c(Cl)cncc3Cl)=N2)cc1 (stereo not drawn) [Compound 25] | 80 to 89% | – | 90 to 100% | < 50% | –
Cc1ccc(-c2ccc(C3COC(c4c(Cl)cncc4Cl)=N3)cc2)cc1F (stereo not drawn) [Compound 26] | 60 to 69% | – | 60 to 69% | 60 to 69% | –
Clc1cncc(Cl)c1C1=NC(c2ccc(-c3ccccc3)cc2)CO1 (stereo not drawn) [Compound 28] | < 50% | 90 to 100% | 80 to 89% | – | –
Cc1ccc(-c2ccc(C3COC(c4c(Cl)cncc4Cl)=N3)cc2)c(F)c1 (stereo not drawn) [Compound 33] | < 50% | – | 80 to 89% | – | –
Fc1ccc(C(F)(F)F)cc1-c1ccc(C2COC(c3c(Cl)cncc3Cl)=N2)cc1 (stereo not drawn) [Compound 34] | 80 to 89% | – | 60 to 69% | 90 to 100% | –
CSc1ccc(-c2ccc(C3COC(c4c(Cl)cncc4Cl)=N3)cc2)cc1 (stereo not drawn) [Compound 35] | < 50% | – | 90 to 100% | 90 to 100% | –
FCSc1ccc(-c2ccc(C3COC(c4c(Cl)cncc4Cl)=N3)cc2)cc1 (stereo not drawn) [Compound 37] | 90 to 100% | < 50% | – | 60 to 69% | –
Fc1cncc(F)c1C1=NC(c2ccc(-c3ccc(OC(F)(F)F)cc3)cc2)CO1 (stereo not drawn) [Compound 40] | < 50% | 90 to 100% | 90 to 100% | 90 to 100% | –
Cc1cc(Br)ccc1C1COC(c2c(Cl)cncc2Cl)=N1 (stereo not drawn) [Compound 41, 4-[4-(4-bromo-2-methylphenyl)-4,5-dihydro-1,3-oxazol-2-yl]-3,5-dichloropyridine] | 90 to 100% | < 50% | – | – | pest or weed control at 200 ppm [1]: < 50%
CCOc1ccc(-c2ccc(C3COC(c4c(Cl)cncc4Cl)=N3)c(C)c2)cc1 (stereo not drawn) [Compound 42] | 80 to 89% | 90 to 100% | 90 to 100% | 80 to 89% | –
C[C@H]1OC(c2c(Cl)cncc2Cl)=N[C@H]1c1ccc(I)cc1 [Compound 45, 4-[4-(4′-Iodophenyl)-5-methyl-4,5-dihydro-oxazol-2-yl]-3,5-dichloropyridines] | 90 to 100% | – | – | – | –
C[C@@H]1OC(c2c(Cl)cncc2Cl)=N[C@H]1c1ccc(I)cc1 [Compound 46, 4-[4-(4′-Iodophenyl)-5-methyl-4,5-dihydro-oxazol-2-yl]-3,5-dichloropyridines] | < 50% | < 50% | – | – | –
